Four molecules from paper PMC10004634 (PLOS ONE, 2023) can be followed below.

Common to all, as to test: biochemical
Common to all, as to parameters: KINOMEscan scanMAX competition binding, DNA-tagged kinases, qPCR read-out, percent control at 300 nM

Experiment [1] deals with T1, YES (Homo sapiens, UniProt P07947).
T1 construct: gene YES1
The settings on record: read-out: Percent control / Tirabrutinib.

Experiment [2] has as its target EIF2AK1 (Homo sapiens, UniProt Q9BQI3). The settings on record: read-out: Percent control / Acalabrutinib.
For experiment [3], the target named is T2, CDC2L2 (Homo sapiens, UniProt Q9UQ88).
T2 construct: gene CDK11A
The settings on record: read-out: Percent control / Acalabrutinib.

Experiment [4] deals with T3, ABL1(T315I)-nonphosphorylated (Homo sapiens, UniProt P00519, T315I).
T3 construct: nonphosphorylated
The following applies: read-out: Percent control / Acalabrutinib.

The target in experiment [5] is EPHA6 (Homo sapiens, UniProt Q9UF33). The following applies: read-out: Percent control / Acalabrutinib.
In experiment [6] the target is T4, PYK2 (Homo sapiens, UniProt Q14289).
T4 construct: gene PTK2B
The settings on record: read-out: Percent control / Acalabrutinib.

The target in experiment [7] is TGFBR1 (Homo sapiens, UniProt P36897). The following applies: read-out: Percent control / Acalabrutinib.
The target in experiment [8] is ALK (Homo sapiens, UniProt Q9UM73). The settings on record: read-out: Percent control / Ibrutinib.
Experiment [9] addresses DAPK3 (Homo sapiens, UniProt O43293). The following applies: read-out: Percent control / Ibrutinib.
Experiment [10] concerns the target PLK1 (Homo sapiens, UniProt P53350). The settings on record: read-out: Percent control / Zanubrutinib.
Experiment [11] deals with T5, DCAMKL1 (Homo sapiens, UniProt O15075).
T5 construct: gene DCLK1
The settings on record: read-out: Percent control / Zanubrutinib.

Experiment [12] deals with GRK1 (Homo sapiens, UniProt Q15835). The following applies: read-out: Percent control / Zanubrutinib.
The target of experiment [13] is ACVR1 (Homo sapiens, UniProt Q04771). The following applies: read-out: Percent control / Zanubrutinib.
In experiment [14] the target is TNK1 (Homo sapiens, UniProt Q13470). The following applies: read-out: Percent control / Zanubrutinib.
Experiment [15] concerns the target T6, SNARK (Homo sapiens, UniProt Q9H093).
T6 construct: gene NUAK2
The settings on record: read-out: Percent control / Zanubrutinib.

Experiment [16] concerns the target CASK (Homo sapiens, UniProt O14936). The following applies: read-out: Percent control / Zanubrutinib.
Experiment [17] has as its target PRKG2 (Homo sapiens, UniProt Q13237). The settings on record: read-out: Percent control / Zanubrutinib.
Experiment [18] has as its target PAK2 (Homo sapiens, UniProt Q13177). The settings on record: read-out: Percent control / Zanubrutinib.
Experiment [19] deals with T7, CDC2L5 (Homo sapiens, UniProt Q14004).
T7 construct: gene CDK13
The settings on record: read-out: Percent control / Zanubrutinib.

In experiment [20] the target is T8, ABL1(M351T)-phosphorylated (Homo sapiens, UniProt P00519, M351T).
T8 construct: phosphorylated
The settings on record: read-out: Percent control / Zanubrutinib.

For experiment [21], the target named is PIK3CA(C420R) (Homo sapiens, UniProt P42336, C420R). The following applies: read-out: Percent control / Zanubrutinib.
In experiment [22] the target is T9, TRKC (Homo sapiens, UniProt Q16288).
T9 construct: gene NTRK3
The following applies: read-out: Percent control / Zanubrutinib.

Experiment [23] has as its target PIM3 (Homo sapiens, UniProt Q86V86). The following applies: read-out: Percent control / Zanubrutinib.

Each structure is given as a SMILES string.

ALK, sequence (Q9UM73 whole entry): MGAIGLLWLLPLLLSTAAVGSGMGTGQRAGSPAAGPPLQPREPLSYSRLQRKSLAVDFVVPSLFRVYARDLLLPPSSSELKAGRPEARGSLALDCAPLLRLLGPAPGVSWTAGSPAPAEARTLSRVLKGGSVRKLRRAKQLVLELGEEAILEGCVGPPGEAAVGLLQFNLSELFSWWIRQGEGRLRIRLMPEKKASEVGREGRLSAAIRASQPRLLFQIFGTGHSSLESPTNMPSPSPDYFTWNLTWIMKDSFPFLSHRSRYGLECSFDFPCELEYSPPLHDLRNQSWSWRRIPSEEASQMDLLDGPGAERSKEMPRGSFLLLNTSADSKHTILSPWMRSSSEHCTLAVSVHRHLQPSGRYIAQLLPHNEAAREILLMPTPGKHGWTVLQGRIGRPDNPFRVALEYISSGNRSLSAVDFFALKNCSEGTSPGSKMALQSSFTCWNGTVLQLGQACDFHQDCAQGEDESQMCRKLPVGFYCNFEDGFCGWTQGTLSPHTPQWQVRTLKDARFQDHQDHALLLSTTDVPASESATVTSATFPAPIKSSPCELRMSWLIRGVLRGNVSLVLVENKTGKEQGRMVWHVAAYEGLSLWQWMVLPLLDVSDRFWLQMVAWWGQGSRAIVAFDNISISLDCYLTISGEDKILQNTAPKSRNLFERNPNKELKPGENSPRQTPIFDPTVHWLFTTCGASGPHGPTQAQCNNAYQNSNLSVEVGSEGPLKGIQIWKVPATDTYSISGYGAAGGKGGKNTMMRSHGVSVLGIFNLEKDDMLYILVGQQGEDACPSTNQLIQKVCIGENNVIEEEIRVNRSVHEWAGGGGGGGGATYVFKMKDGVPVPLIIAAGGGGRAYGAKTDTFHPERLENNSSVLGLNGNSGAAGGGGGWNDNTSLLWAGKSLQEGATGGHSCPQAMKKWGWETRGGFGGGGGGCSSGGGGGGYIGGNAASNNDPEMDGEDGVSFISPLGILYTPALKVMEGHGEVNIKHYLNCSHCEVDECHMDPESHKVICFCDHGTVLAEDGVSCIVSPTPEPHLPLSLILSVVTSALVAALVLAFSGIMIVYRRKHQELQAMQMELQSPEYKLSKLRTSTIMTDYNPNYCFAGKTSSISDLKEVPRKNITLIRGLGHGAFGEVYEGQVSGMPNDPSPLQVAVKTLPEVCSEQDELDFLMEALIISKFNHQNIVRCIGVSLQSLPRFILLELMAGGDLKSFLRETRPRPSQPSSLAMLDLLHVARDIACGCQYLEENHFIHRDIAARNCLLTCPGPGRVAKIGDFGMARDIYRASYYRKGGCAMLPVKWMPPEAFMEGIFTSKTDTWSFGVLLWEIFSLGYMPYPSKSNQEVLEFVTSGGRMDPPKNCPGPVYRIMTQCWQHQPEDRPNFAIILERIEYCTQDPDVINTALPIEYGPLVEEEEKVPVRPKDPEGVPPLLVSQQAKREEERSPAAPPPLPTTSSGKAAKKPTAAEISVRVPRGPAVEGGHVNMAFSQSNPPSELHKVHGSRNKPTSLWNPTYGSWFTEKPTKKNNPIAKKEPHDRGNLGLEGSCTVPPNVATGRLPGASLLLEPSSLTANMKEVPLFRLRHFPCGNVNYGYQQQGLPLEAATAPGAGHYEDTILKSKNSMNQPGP
GRK1, sequence (Q15835 whole entry): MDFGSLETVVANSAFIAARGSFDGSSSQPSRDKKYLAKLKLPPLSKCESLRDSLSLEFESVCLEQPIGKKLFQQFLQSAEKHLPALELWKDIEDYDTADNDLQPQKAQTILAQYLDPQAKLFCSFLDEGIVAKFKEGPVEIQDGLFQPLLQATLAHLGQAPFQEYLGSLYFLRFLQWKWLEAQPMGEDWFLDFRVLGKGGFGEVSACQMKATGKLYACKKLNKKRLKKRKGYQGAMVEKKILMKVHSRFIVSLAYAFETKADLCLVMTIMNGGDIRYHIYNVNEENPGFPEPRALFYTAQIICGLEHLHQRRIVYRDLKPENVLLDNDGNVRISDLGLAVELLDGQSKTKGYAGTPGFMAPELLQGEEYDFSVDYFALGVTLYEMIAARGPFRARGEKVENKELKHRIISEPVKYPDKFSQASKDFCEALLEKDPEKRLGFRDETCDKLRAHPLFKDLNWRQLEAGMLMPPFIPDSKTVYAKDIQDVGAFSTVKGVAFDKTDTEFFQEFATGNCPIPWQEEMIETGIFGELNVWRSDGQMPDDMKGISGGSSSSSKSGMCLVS
TNK1, sequence (Q13470 whole entry): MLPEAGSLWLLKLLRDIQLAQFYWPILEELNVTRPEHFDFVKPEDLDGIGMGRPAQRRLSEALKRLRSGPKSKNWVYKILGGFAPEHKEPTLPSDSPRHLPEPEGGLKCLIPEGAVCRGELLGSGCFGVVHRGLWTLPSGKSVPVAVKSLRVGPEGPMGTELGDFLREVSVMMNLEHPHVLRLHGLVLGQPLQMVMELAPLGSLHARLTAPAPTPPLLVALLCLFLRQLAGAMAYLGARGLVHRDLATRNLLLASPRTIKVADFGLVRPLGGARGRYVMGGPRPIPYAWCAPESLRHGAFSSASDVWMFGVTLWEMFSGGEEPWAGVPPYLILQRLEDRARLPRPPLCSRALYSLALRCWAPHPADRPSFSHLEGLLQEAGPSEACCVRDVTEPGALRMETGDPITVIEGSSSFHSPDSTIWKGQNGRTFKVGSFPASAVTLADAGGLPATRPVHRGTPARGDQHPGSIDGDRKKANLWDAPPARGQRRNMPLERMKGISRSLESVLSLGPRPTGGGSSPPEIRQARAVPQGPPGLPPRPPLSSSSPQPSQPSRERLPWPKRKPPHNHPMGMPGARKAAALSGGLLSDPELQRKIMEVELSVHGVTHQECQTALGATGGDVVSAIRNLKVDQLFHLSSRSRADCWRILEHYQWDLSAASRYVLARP
PRKG2, sequence (Q13237 whole entry): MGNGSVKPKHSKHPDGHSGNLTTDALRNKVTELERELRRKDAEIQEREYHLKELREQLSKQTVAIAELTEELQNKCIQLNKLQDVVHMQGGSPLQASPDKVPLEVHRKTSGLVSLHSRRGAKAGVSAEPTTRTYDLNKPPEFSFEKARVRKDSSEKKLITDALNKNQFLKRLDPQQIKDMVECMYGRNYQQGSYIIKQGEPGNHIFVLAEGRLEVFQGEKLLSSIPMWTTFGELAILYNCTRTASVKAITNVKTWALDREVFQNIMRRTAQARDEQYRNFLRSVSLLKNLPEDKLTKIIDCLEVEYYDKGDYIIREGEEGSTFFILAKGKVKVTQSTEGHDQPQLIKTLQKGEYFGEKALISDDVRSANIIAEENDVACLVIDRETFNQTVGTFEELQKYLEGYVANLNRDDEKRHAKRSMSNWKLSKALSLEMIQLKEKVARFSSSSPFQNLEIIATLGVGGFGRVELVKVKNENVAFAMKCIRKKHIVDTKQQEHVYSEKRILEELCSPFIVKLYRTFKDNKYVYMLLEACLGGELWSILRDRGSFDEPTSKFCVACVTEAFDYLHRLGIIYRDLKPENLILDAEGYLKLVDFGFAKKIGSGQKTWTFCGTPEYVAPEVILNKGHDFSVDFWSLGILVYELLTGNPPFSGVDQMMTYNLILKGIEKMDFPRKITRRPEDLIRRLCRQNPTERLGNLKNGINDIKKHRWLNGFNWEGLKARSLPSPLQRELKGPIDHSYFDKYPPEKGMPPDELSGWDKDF
CASK, sequence (O14936 whole entry): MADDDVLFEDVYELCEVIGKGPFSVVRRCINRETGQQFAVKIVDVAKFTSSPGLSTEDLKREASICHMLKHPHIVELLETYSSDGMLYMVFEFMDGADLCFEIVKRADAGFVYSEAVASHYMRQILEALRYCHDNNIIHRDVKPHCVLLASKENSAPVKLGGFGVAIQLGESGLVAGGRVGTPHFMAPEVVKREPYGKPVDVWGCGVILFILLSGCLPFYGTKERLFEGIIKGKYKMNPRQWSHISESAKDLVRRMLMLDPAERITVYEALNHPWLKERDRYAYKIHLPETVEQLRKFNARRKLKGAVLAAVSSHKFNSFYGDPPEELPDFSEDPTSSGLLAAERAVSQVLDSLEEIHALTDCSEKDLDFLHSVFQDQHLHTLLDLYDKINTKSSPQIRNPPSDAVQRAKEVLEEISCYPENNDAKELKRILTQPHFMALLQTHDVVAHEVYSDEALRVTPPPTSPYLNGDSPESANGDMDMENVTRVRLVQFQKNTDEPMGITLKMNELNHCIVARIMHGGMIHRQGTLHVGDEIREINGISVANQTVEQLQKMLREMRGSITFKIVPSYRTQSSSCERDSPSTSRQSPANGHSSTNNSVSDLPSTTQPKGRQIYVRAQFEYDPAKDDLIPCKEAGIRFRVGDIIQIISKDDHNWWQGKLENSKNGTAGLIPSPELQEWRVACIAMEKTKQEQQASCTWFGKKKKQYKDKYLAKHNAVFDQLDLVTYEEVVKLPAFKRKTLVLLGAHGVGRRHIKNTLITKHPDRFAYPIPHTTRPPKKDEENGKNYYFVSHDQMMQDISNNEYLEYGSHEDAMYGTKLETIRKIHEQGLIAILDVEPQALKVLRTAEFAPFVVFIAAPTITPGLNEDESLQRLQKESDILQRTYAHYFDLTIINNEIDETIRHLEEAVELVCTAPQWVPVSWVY

As to `CC#CC(=O)N1CC[C@@H](n2c(=O)n(-c3ccc(Oc4ccccc4)cc3)c3c(N)ncnc32)C1` [Tirabrutinib], in experiment [1], the remaining binding at 0.3 µM was determined as 71%.
For `CC#CC(=O)N1CCC[C@H]1c1nc(-c2ccc(C(=O)Nc3ccccn3)cc2)c2c(N)nccn12` [Acalabrutinib], the remaining binding at 0.3 µM in [2] stood at 85%; in experiment [3], 82%; in [4] it was 96%; in [5] it was 93%; in [6] it was 89%; in experiment [7], 96%.
Regarding `C=CC(=O)N1CCC[C@@H](n2nc(-c3ccc(Oc4ccccc4)cc3)c3c(N)ncnc32)C1` [Ibrutinib], the remaining binding at 0.3 µM in experiment [8] turned out to be 87%; in experiment [9], 92%.
Regarding `C=CC(=O)N1CCC([C@@H]2CCNc3c(C(N)=O)c(-c4ccc(Oc5ccccc5)cc4)nn32)CC1` [Zanubrutinib], the remaining binding at 0.3 µM in experiment [10] was 100%; in [11], 100%; in experiment [12], 100%; in [13], 100%; in [14] it was 93%; in experiment [15], 97%. In addition, the remaining binding at 0.3 µM was found to be 72% in experiment [16]; 85% in experiment [17]; 83% in experiment [18]; 99% in experiment [19]; 83% in [20]; 67% in [21]. In addition, the figures for the remaining binding at 0.3 µM in experiment [22] and in [23] were 97% and 84%, respectively.
